In PubChem BioAssay AID256 (DTP/NCI, 2004):
Several values for one entry are separate records, joined by “and”; a condition that tells them apart may be missing. Equal values may be shown once. Inconclusive results and toxic doses are left out. How the source made its calls: active means survival T/C of 150% or more; inactive means T/C below 125% in these data.

Tested on: CD2F1 mice, L1210 leukemia ip, survival T/C
Experiment: NCI In Vivo Anticancer Drug Screen. Data for tumor model L1210 Leukemia (intraperitoneal) in CD2F1 (CDF1) mice
Conditions: endpoint: mean survival time, higher = longer survival
Procedure, shortened: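 Implant tumor; dose compound or vehicle; measure endpoint in both groups; report treated divided by control.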

[1] = dose: 100.0 mg/kg/injection, schedule: Q01DX001 (ip), vehicle: saline with Tween-80
[2] = dose: 200.0 mg/kg/injection, schedule: Q01DX001 (ip), vehicle: saline with Tween-80
[3] = dose: 400.0 mg/kg/injection, schedule: Q01DX001 (ip), vehicle: saline with Tween-80
[4] = dose: 100.0 mg/kg/injection, schedule: Q01DX009 (ip), vehicle: saline with Tween-80
[5] = dose: 100.0 mg/kg/injection, schedule: Q04DX003 (ip), vehicle: saline with Tween-80
[6] = dose: 200.0 mg/kg/injection, schedule: Q01DX009 (ip), vehicle: saline with Tween-80
[7] = dose: 200.0 mg/kg/injection, schedule: Q04DX003 (ip), vehicle: saline with Tween-80
[8] = dose: 400.0 mg/kg/injection, schedule: Q04DX003 (ip), vehicle: saline with Tween-80
[9] = dose: 25.0 mg/kg/injection, schedule: Q01DX009 (ip), vehicle: saline with Tween-80
[10] = dose: 12.5 mg/kg/injection, schedule: Q04DX003 (ip), vehicle: saline
[11] = dose: 25.0 mg/kg/injection, schedule: Q04DX003 (ip), vehicle: saline
[12] = dose: 100.0 mg/kg/injection, schedule: Q04DX002 (ip), vehicle: saline with Tween-80
[13] = dose: 200.0 mg/kg/injection, schedule: Q04DX002 (ip), vehicle: saline with Tween-80
[14] = dose: 400.0 mg/kg/injection, schedule: Q04DX002 (ip), vehicle: saline with Tween-80
[15] = dose: 400.0 mg/kg/injection, schedule: Q01DX009 (ip), vehicle: saline with Tween-80

Measured: T/C

O=C1C=C(c2ccccc2)C/C1=C\c1ccccc1
inactive: [1] 87 % of control | [2] 87 % of control

CC(=O)N(C)c1ccc(S(=O)(=O)Cl)cc1
inactive: [1] 100 % of control | [2] 105 % of control | [3] 93 % of control

CCOC(=O)N1C2c3ccccc3C(c3ccccc32)N1C(=O)OCC
inactive: [4] 94 % of control | [5] 95 % of control | [6] 89 % of control | [7] 98 % of control | [8] 93 % of control

O/N=C/c1ccccc1O.O/N=C/c1ccccc1O.[Cu]
inactive: dose: 1.56 mg/kg/injection, schedule: Q01DX009 (ip), vehicle: saline with Tween-80 98 % of control and 103 % of control | dose: 3.12 mg/kg/injection, schedule: Q01DX009 (ip), vehicle: saline with Tween-80 102 % of control and 106 % of control | dose: 6.25 mg/kg/injection, schedule: Q01DX009 (ip), vehicle: saline with Tween-80 93 % of control and 101 % of control | dose: 12.5 mg/kg/injection, schedule: Q01DX009 (ip), vehicle: saline with Tween-80 100 % of control and 108 % of control | [9] 114 % of control and 100 % of control

C[N+](C)(C)CCCCC[N+](C)(C)C
inactive: dose: 6.25 mg/kg/injection, schedule: Q01DX009 (ip), vehicle: saline sonified 93 % of control | dose: 6.25 mg/kg/injection, schedule: Q04DX003 (ip), vehicle: saline 103 % of control | dose: 12.5 mg/kg/injection, schedule: Q01DX009 (ip), vehicle: saline sonified 90 % of control | [10] 95 % of control | dose: 25.0 mg/kg/injection, schedule: Q01DX009 (ip), vehicle: saline sonified 93 % of control | [9] 100 % of control | [11] 101 % of control | dose: 50.0 mg/kg/injection, schedule: Q01DX009 (ip), vehicle: saline with Tween-80 108 % of control | [4] 103 % of control | [5] 86 % of control

C(=N\Nc1nc2ccccc2s1)/c1ccncc1
inactive: dose: 100.0 mg/kg/injection, schedule: Q04DX003 (ip), vehicle: Klucel (hydroxypropylcellulose) (HPC) 90 % of control | dose: 200.0 mg/kg/injection, schedule: Q04DX003 (ip), vehicle: Klucel (hydroxypropylcellulose) (HPC) 92 % of control | dose: 400.0 mg/kg/injection, schedule: Q04DX003 (ip), vehicle: Klucel (hydroxypropylcellulose) (HPC) 90 % of control

CC(=O)[O][Hg][c]1cc(-c2ccc(N=Nc3c(S(=O)(=O)O)cc4cccc(N)c4c3O)cc2)ccc1N=Nc1c(S(=O)(=O)O)cc2cccc(N)c2c1O
inactive: dose: 6.25 mg/kg/injection, schedule: Q04DX003 (ip), vehicle: saline with Tween-80 98 % of control | dose: 12.5 mg/kg/injection, schedule: Q04DX003 (ip), vehicle: saline with Tween-80 96 % of control | dose: 25.0 mg/kg/injection, schedule: Q04DX003 (ip), vehicle: saline with Tween-80 104 % of control

CCOC(=O)c1cn[nH]c1/N=N/N(C)C
inactive: dose: 100.0 mg/kg/injection, schedule: Q01DX001 (ip), vehicle: carboxymethylcellulose (CMC) 115 % of control

COc1ccc(NC(=O)CCl)c(OC)c1
inactive: [12] 108 % of control | [13] 97 % of control | [14] 97 % of control

O=c1cc(Cl)c(=O)[nH][nH]1
inactive: dose: 100.0 mg/kg/injection, schedule: Q01DX001 (ip), vehicle: other 104 % of control | [4] 92 % of control | [5] 94 % of control | dose: 200.0 mg/kg/injection, schedule: Q01DX001 (ip), vehicle: other 97 % of control | [6] 94 % of control | [7] 94 % of control | dose: 400.0 mg/kg/injection, schedule: Q01DX001 (ip), vehicle: other 98 % of control | [15] 97 % of control | [8] 96 % of control

O=c1[nH]c2cnn(-c3ccccc3)c2[nH]1
inactive: [1] 97 % of control | [2] 97 % of control | [3] 93 % of control

O=Cc1c2ccc(Cl)cc2nc2cc(Cl)ccc12
inactive: [5] 112 % of control | [7] 93 % of control | [8] 102 % of control

N#C/C(=C\c1ccc(-c2ccccc2)cc1)c1ccc(Cl)cc1
inactive: [7] 87 % of control

N#CC1(c2ccc(Cl)cc2)CCC1
inactive: dose: 100.0 mg/kg/injection, schedule: Q01DX009 (ip), vehicle: saline sonified 102 % of control | [5] 101 % of control | dose: 200.0 mg/kg/injection, schedule: Q01DX009 (ip), vehicle: saline sonified 92 % of control | [7] 101 % of control | dose: 400.0 mg/kg/injection, schedule: Q01DX009 (ip), vehicle: saline sonified 105 % of control | [8] 100 % of control

CCc1ccccc1NC(=O)/C=C/c1ccccc1
inactive: [12] 86 % of control | [13] 96 % of control | [14] 93 % of control

Cc1ccc(S(=O)(=O)NN2CCOC2=O)cc1
inactive: dose: 50.0 mg/kg/injection, schedule: Q01DX009 (ip), vehicle: Klucel (hydroxypropylcellulose) (HPC) 100 % of control | dose: 100.0 mg/kg/injection, schedule: Q01DX009 (ip), vehicle: Klucel (hydroxypropylcellulose) (HPC) 91 % of control | dose: 200.0 mg/kg/injection, schedule: Q01DX009 (ip), vehicle: Klucel (hydroxypropylcellulose) (HPC) 100 % of control

CCOC(=O)NC(=S)n1ncnc1N
inactive: [10] 97 % of control | [11] 102 % of control

CCC(NC(=O)OCc1ccccc1)C(=O)O (stereo not given)
inactive: [4] 88 % of control | [6] 90 % of control | [15] 90 % of control

C=C1C(=O)OC2/C=C(\C)CC/C=C(/C=O)C(OC(=O)C(C)C)C(O)C12 (stereo not given)
inactive: dose: 1.0 mg/kg/injection, schedule: Q01DX009 (ip), vehicle: saline with Tween-80 113 % of control and 103 % of control | dose: 2.0 mg/kg/injection, schedule: Q01DX009 (ip), vehicle: saline with Tween-80 103 % of control and 105 % of control and 107 % of control | dose: 4.0 mg/kg/injection, schedule: Q01DX009 (ip), vehicle: saline with Tween-80 97 % of control and 100 % of control and 107 % of control | dose: 8.0 mg/kg/injection, schedule: Q01DX009 (ip), vehicle: saline with Tween-80 102 % of control and 109 % of control and 112 % of control | dose: 16.0 mg/kg/injection, schedule: Q01DX009 (ip), vehicle: saline with Tween-80 92 % of control and 96 % of control

Nc1ncc2c(n1)SCC2
inactive: dose: 200.0 mg/kg/injection, schedule: Q01DX001 (ip), vehicle: saline 119 % of control

O=C(Nc1ccc(Cl)cc1Cl)SCCO
inactive: [4] 108 % of control | [6] 101 % of control | [15] 95 % of control

CC[n+]1c(-c2ccccc2)c2cc(N)ccc2c2ccc(N)cc21 (tested in a mixture with another compound)
inactive: dose: 5.0 mg/kg/injection, schedule: Q01DX009 (ip), vehicle: water 104 % of control | dose: 10.0 mg/kg/injection, schedule: Q01DX009 (ip), vehicle: water 104 % of control | dose: 20.0 mg/kg/injection, schedule: Q01DX009 (ip), vehicle: water 104 % of control | dose: 40.0 mg/kg/injection, schedule: Q01DX009 (ip), vehicle: water 102 % of control | dose: 80.0 mg/kg/injection, schedule: Q01DX009 (ip), vehicle: water 86 % of control

O=C(O)/C=C/c1ccccc1C(=O)O
inactive: dose: 100.0 mg/kg/injection, schedule: Q01DX009 (ip), vehicle: saline 103 % of control | dose: 200.0 mg/kg/injection, schedule: Q01DX009 (ip), vehicle: saline 101 % of control | dose: 400.0 mg/kg/injection, schedule: Q01DX009 (ip), vehicle: saline 101 % of control
